Measurements: the CheMixHub viscosity set

Test: xn = mol fraction of the nth substance listed

CCCC(C)O (configuration not stated) + CCCCCC
viscosity [mPa·s], 101.33 kPa
Conditions	x1 = 0.1	x1 = 0.2	x1 = 0.3	x1 = 0.4	x1 = 0.5	x1 = 0.6	x1 = 0.7	x1 = 0.8	x1 = 0.9
303 K	0.28	0.31	0.382	0.537	0.682	0.878	1.228	1.588	1.965
313 K	0.249	0.277	0.36	0.44	0.544	0.802	0.967	1.21	1.484
323 K	0.228	0.254	0.31	0.385	0.472	0.634	0.805	0.981	1.138

CCCC(C)O (configuration not stated) + CCCCCCC
101 kPa
Conditions	viscosity [mPa·s]
293.8 K, x1 = 0.5	0.771
295.1 K, x1 = 0.051	0.477

CC(CC(C)(C)C)CC(C)(C)CC(C)(C)C (configuration not stated) + CCCCCCCCCCCC
Conditions	viscosity [mPa·s]
323.15 K, 100 kPa, x1 = 0.279	1.09

CC(CC(C)(C)C)CC(C)(C)CC(C)(C)C (configuration not stated) + CCCCCCCCCCCCC
viscosity [mPa·s], 100 kPa
Conditions	x2 = 0.125	x2 = 0.25	x2 = 0.375	x2 = 0.5	x2 = 0.625	x2 = 0.75	x2 = 0.875
293.15 K	3.28	2.98	2.69	2.49	2.29	2.14	1.98
303.15 K	2.65	2.39	2.18	2.07	1.89	1.76	1.64
313.15 K	2.15	1.96	1.79	1.71	1.57	1.47	1.39
323.15 K	1.79	1.63	1.51	1.43	1.33	1.25	1.18

CC(CC(C)(C)C)CC(C)(C)CC(C)(C)C (configuration not stated) + CCCCCCCCCCCCCCCC
298.15 K, 101.33 kPa
Conditions	viscosity [mPa·s]
x2 = 0.0974	3.252
x2 = 0.2011	3.181
x2 = 0.3015	3.128
x2 = 0.3995	3.09
x2 = 0.4995	3.064
x2 = 0.6002	3.05
x2 = 0.7004	3.045
x2 = 0.8	3.049

CCCCNCCCC + CCCCCCCCCCO
viscosity [mPa·s], 101.33 kPa
Conditions	x1 = 0.0981	x1 = 0.1964	x1 = 0.286	x1 = 0.3857	x1 = 0.4851	x1 = 0.5846	x1 = 0.6877	x1 = 0.7856	x1 = 0.8866
303.15 K	7.771	6.615	5.545	4.423	3.439	2.607	1.944	1.445	1.073
313.15 K	5.959	4.985	4.15	3.305	2.611	2.021	1.545	1.199	0.9135

CCOC(=O)C(=O)OCC + CCCCCCCCCCO
303.15 K, 101.33 kPa
Conditions	viscosity [mPa·s]
x1 = 0.1042	6.782
x1 = 0.1986	5.372
x1 = 0.2934	4.324
x1 = 0.401	3.516
x1 = 0.5111	2.851
x1 = 0.5985	2.488
x1 = 0.7108	2.078
x1 = 0.8081	1.837
x1 = 0.8863	1.691

CCCCNCCCC + CCCCCCCCO
viscosity [mPa·s], 101.33 kPa
Conditions	x1 = 0.0912	x1 = 0.1863	x1 = 0.2846	x1 = 0.3857	x1 = 0.4878	x1 = 0.5882	x1 = 0.6862	x1 = 0.7892	x1 = 0.8929
303.15 K	5.37	4.588	3.829	3.105	2.481	1.979	1.581	1.251	0.9852
313.15 K	3.865	3.336	2.812	2.336	1.921	1.569	1.277	1.026	0.827

CCOC(=O)C(=O)OCC + CCCCCCCCO
303.15 K, 101.33 kPa
Conditions	viscosity [mPa·s]
x1 = 0.0949	4.702
x1 = 0.2003	3.667
x1 = 0.2883	3.152
x1 = 0.4	2.636
x1 = 0.5026	2.296
x1 = 0.6064	2.027
x1 = 0.6984	1.86
x1 = 0.7809	1.74
x1 = 0.8763	1.638

CCCCNCCCC + CCCCCCCO
viscosity [mPa·s], 101.33 kPa
Conditions	x1 = 0.0975	x1 = 0.197	x1 = 0.2901	x1 = 0.3789	x1 = 0.4808	x1 = 0.5861	x1 = 0.685	x1 = 0.7862	x1 = 0.8807
303.15 K	4.226	3.629	3.099	2.63	2.15	1.741	1.432	1.171	0.9696
313.15 K	3.151	2.716	2.337	2.013	1.685	1.393	1.169	0.9814	0.8316

COCCO + CCCCCCCO
viscosity [mPa·s], 101 kPa
Conditions	x1 = 0.1451	x1 = 0.2763	x1 = 0.3956	x1 = 0.5044	x1 = 0.6043	x1 = 0.6961	x1 = 0.7808	x1 = 0.8593	x1 = 0.9322
298.15 K	4.92	3.963	3.336	2.889	2.551	2.252	2.054	1.852	1.79
308.15 K	3.116	2.561	2.23	1.936	1.753	1.592	1.489	1.341	1.247
318.15 K	2.496	2.203	1.906	1.611	1.487	1.455	1.465	1.142	1.095

CCCCNCCCC + CCCCCCO
viscosity [mPa·s], 101.33 kPa
Conditions	x1 = 0.1034	x1 = 0.1705	x1 = 0.2901	x1 = 0.3817	x1 = 0.5001	x1 = 0.5958	x1 = 0.6955	x1 = 0.7942	x1 = 0.9007
303.15 K	3.304	2.992	2.495	2.156	1.776	1.52	1.277	1.088	0.9036
313.15 K	2.723	2.473	2.069	1.792	1.475	1.265	1.088	0.9214	0.7818

COCCO + CCCCCCO
viscosity [mPa·s], 101 kPa
Conditions	x1 = 0.1298	x1 = 0.2513	x1 = 0.3653	x1 = 0.4723	x1 = 0.5731	x1 = 0.6682	x1 = 0.758	x1 = 0.843	x1 = 0.9236
298.15 K	3.765	3.225	2.811	2.458	2.25	2.076	1.94	1.815	1.707
308.15 K	2.612	2.233	2.027	1.815	1.667	1.487	1.356	1.303	1.273
318.15 K	2.193	1.908	1.648	1.477	1.356	1.278	1.211	1.129	1.083

CCCCNCCCC + CCCCCO
viscosity [mPa·s], 101.33 kPa
Conditions	x1 = 0.0971	x1 = 0.2014	x1 = 0.3007	x1 = 0.4003	x1 = 0.5004	x1 = 0.5841	x1 = 0.6901	x1 = 0.7836	x1 = 0.8845
303.15 K	2.493	2.178	1.913	1.676	1.473	1.319	1.142	1.006	0.8804
313.15 K	2.078	1.814	1.601	1.41	1.241	1.116	0.9767	0.8701	0.7633

COCCO + CCCCCO
viscosity [mPa·s]
Conditions	298.15 K	308.15 K	318.15 K
101 kPa, x1 = 0.114	2.939	2.12	1.659
101 kPa, x1 = 0.2246	2.569	1.894	1.525
101 kPa, x1 = 0.3317	2.346	1.724	1.427
101 kPa, x1 = 0.4357	2.155	1.543	1.279
101 kPa, x1 = 0.5367	2.007	1.442	1.234
101 kPa, x1 = 0.6347	1.894	1.413	1.222
101 kPa, x1 = 0.7299	1.8	1.306	1.208
101 kPa, x1 = 0.8225	1.72	1.254	1.035
101 kPa, x1 = 0.9125	1.686	1.249	1.036
101.33 kPa, x1 = 0.1741	–	1.966	–
101.33 kPa, x1 = 0.2604	–	1.804	–
101.33 kPa, x1 = 0.3455	–	1.665	–
101.33 kPa, x1 = 0.4796	–	1.511	–
101.33 kPa, x1 = 0.6102	–	1.385	–
101.33 kPa, x1 = 0.7245	–	1.309	–
101.33 kPa, x1 = 0.78	–	1.284	–
101.33 kPa, x1 = 0.9014	–	1.23	–

OC(c1ccccc1)c1ccccc1 + CCCCCOC(C)=O
Conditions	viscosity [mPa·s]
298.15 K, 101 kPa, x2 = 0.5	1.496

COCCO + CCCCO
viscosity [mPa·s]
Conditions	298.15 K	308.15 K	313.15 K	318.15 K
100 kPa, x1 = 0.1009	2.27	–	1.6	–
100 kPa, x1 = 0.2003	2.06	–	1.48	–
100 kPa, x1 = 0.3003	1.91	–	1.39	–
100 kPa, x1 = 0.4012	1.8	–	1.32	–
100 kPa, x1 = 0.5008	1.72	–	1.27	–
100 kPa, x1 = 0.6012	1.65	–	1.24	–
100 kPa, x1 = 0.7006	1.61	–	1.21	–
100 kPa, x1 = 0.7998	1.58	–	1.19	–
100 kPa, x1 = 0.9	1.56	–	1.18	–
101 kPa, x1 = 0.09765	2.212	1.688	–	1.266
101 kPa, x1 = 0.1958	2.061	1.583	–	1.212
101 kPa, x1 = 0.2945	1.948	1.49	–	1.172
101 kPa, x1 = 0.3937	1.88	1.355	–	1.117
101 kPa, x1 = 0.4934	1.813	1.304	–	1.063
101 kPa, x1 = 0.5937	1.767	1.248	–	1.046
101 kPa, x1 = 0.6944	1.723	1.219	–	1.036
101 kPa, x1 = 0.7957	1.674	1.191	–	0.996
101 kPa, x1 = 0.8976	1.622	1.179	–	0.9925
101.33 kPa, x1 = 0.1184	–	1.694	–	–
101.33 kPa, x1 = 0.2345	–	1.551	–	–
101.33 kPa, x1 = 0.3377	–	1.443	–	–
101.33 kPa, x1 = 0.4484	–	1.361	–	–
101.33 kPa, x1 = 0.5476	–	1.305	–	–
101.33 kPa, x1 = 0.6312	–	1.265	–	–
101.33 kPa, x1 = 0.7363	–	1.229	–	–
101.33 kPa, x1 = 0.9104	–	1.195	–	–
